Results on two molecules are retold here after patent publication US11739074B2, “Ras inhibitors” (Revolution Medicines, Inc., priority 2019, dated 2023).

For series [1] the following is noted: from CCn1c(-c2cccnc2[C@H](C)OC)c(CC(C)(C)CO)c2cc(-c3cc(C[C@H](NC(=O)OC(C)(C)C)C(=O)N4CCC[C@@H](C(=O)O)N4)cc(O[Si](C(C)C)(C(C)C)C(C)C)c3)ccc21; ester bond; EDCI/HOBt/DIPEA; DCM; 15.3 mM; 25.0 °C; 16.0 h.
The conditions of series [2]: from CCn1c(-c2cccnc2[C@H](C)OC)c(CC(C)(C)CO)c2cc(-c3cc(C[C@H](NC(=O)OC(C)(C)C)C(=O)N4CCC[C@@H](C(=O)O)N4)cc(O[Si](C(C)C)(C(C)C)C(C)C)c3)ccc21; ester bond; 18-membered ring; EDCI/HOBt/DIEA; DCM; 15.3 mM; 25.0 °C.
The subject of a further series is SW1573. The following applies: cited from earlier work.

In turn, `CCn1c(-c2cccnc2[C@H](C)OC)c2c3cc(ccc31)-c1cc(cc(O[Si](C(C)C)(C(C)C)C(C)C)c1)C[C@H](NC(=O)OC(C)(C)C)C(=O)N1CCC[C@H](N1)C(=O)OCC(C)(C)C2` came in with a ring closure, yield of all isomers in series [1] of 42%. In addition, the ring closure, isolated yield in series [2] came out at 42%. In the case of `C=CC(=O)N1CCN(c2nc(=O)n(-c3c(C)ccnc3C(C)C)c3nc(-c4c(O)cccc4F)c(F)cc23)[C@@H](C)C1` [AMG510], the “sensitivity of cell line SW1573 to inhibitor” value with SW1573 is reported as “insensitive”.
